Source: ChEMBL document CHEMBL4342421, “Current scenario of tetrazole hybrids for antibacterial activity” (Eur J Med Chem, 2019)
In brackets after ≈: the same amount, converted by molar mass.

Tests used:
Staphylococcus aureus [1] = assay: Antimicrobial activity against Staphylococcus aureus assessed as zone of inhibition at 50 ug/ml; assay type: functional; conditions: read-out: IZ
Escherichia coli [2] = assay: Antimicrobial activity against Escherichia coli assessed as zone of inhibition at 50 ug/ml; assay type: functional; conditions: read-out: IZ
Candida albicans [3] = assay: Antifungal activity against Candida albicans assessed as zone of inhibition at 50 ug/ml; assay type: functional; conditions: read-out: IZ
Aspergillus niger [4] = assay: Antifungal activity against Aspergillus niger assessed as zone of inhibition at 50 ug/ml; assay type: functional; conditions: read-out: IZ
Bacillus cereus [5] = assay: Antimicrobial activity against Bacillus cereus; assay type: functional
Staphylococcus aureus [6] = assay: Antimicrobial activity against Staphylococcus aureus; assay type: functional
Candida albicans [7] = assay: Antifungal activity against Candida albicans; assay type: functional
Aspergillus niger [8] = assay: Antifungal activity against Aspergillus niger; assay type: functional
Escherichia coli [9] = assay: Antimicrobial activity against Escherichia coli; assay type: functional
Aspergillus niger [10] = assay: Antifungal activity against Aspergillus niger assessed as zone of inhibition at 250 ug/ml; assay type: functional; conditions: read-out: IZ
Bacillus cereus [11] = assay: Antimicrobial activity against Bacillus cereus assessed as zone of inhibition at 250 ug/ml; assay type: functional; conditions: read-out: IZ
Staphylococcus aureus [12] = assay: Antimicrobial activity against Staphylococcus aureus assessed as zone of inhibition at 250 ug/ml; assay type: functional; conditions: read-out: IZ
Pseudomonas aeruginosa [13] = assay: Antimicrobial activity against Pseudomonas aeruginosa assessed as zone of inhibition at 250 ug/ml; assay type: functional; conditions: read-out: IZ
Escherichia coli [14] = assay: Antimicrobial activity against Escherichia coli assessed as zone of inhibition at 250 ug/ml; assay type: functional; conditions: read-out: IZ
Pseudomonas aeruginosa [15] = assay: Antimicrobial activity against Pseudomonas aeruginosa; assay type: functional
Candida albicans [16] = assay: Antifungal activity against Candida albicans assessed as zone of inhibition at 250 ug/ml; assay type: functional; conditions: read-out: IZ
Bacillus subtilis [17] = assay: Antimicrobial activity against Bacillus subtilis; assay type: functional
Salmonella typhimurium = assay: Antimicrobial activity against Salmonella typhimurium; assay type: functional, Salmonella enterica subsp. enterica serovar Typhimurium; conditions: Salmonella enterica
Aspergillus fumigatus = assay: Antifungal activity against Aspergillus fumigatus assessed as zone of inhibition at 50 ug/ml; assay type: functional; conditions: read-out: IZ
Pseudomonas aeruginosa [18] = assay: Antimicrobial activity against Pseudomonas aeruginosa assessed as zone of inhibition at 50 ug/ml; assay type: functional; conditions: read-out: IZ
Bacillus subtilis [19] = assay: Antimicrobial activity against Bacillus subtilis assessed as zone of inhibition at 50 ug/ml; assay type: functional; conditions: read-out: IZ

## COc1ccc(/C=C/C(=O)n2nnnc2-c2ccccc2)cc1
Staphylococcus aureus [1]
  zone of inhibition at 50 µg/mL: 8 to 15 mm
Escherichia coli [2]
  zone of inhibition at 50 µg/mL: 8 to 15 mm
Candida albicans [3]
  zone of inhibition at 50 µg/mL: 8 to 15 mm
Aspergillus niger [4]
  zone of inhibition at 50 µg/mL: 8 to 15 mm

## Oc1ccc(-c2nnnn2-c2nc3ccccc3s2)cc1O
Bacillus cereus [5]
  MIC: 50 to 100 µg/mL (≈ 161 to 321 µM)
Staphylococcus aureus [6]
  MIC: 50 to 100 µg/mL (≈ 161 to 321 µM)
Candida albicans [7]
  MIC: 50 to 100 µg/mL (≈ 161 to 321 µM)
Aspergillus niger [8]
  MIC: 50 to 100 µg/mL (≈ 161 to 321 µM)
Escherichia coli [9]
  MIC: 50 to 100 µg/mL (≈ 161 to 321 µM)
Aspergillus niger [10]
  zone of inhibition at 250 µg/mL: 16 to 26 mm
Bacillus cereus [11]
  zone of inhibition at 250 µg/mL: 16 to 26 mm
Staphylococcus aureus [12]
  zone of inhibition at 250 µg/mL: 16 to 26 mm
Pseudomonas aeruginosa [13]
  zone of inhibition at 250 µg/mL: 16 to 26 mm
Escherichia coli [14]
  zone of inhibition at 250 µg/mL: 16 to 26 mm
Pseudomonas aeruginosa [15]
  MIC: 50 to 100 µg/mL (≈ 161 to 321 µM)
Candida albicans [16]
  zone of inhibition at 250 µg/mL: 16 to 26 mm

## O=C(N[C@H](CO)[C@H](O)c1ccc([N+](=O)[O-])cc1)C(Cl)Cl [CHLORAMPHENICOL]
Bacillus subtilis [17]
  MIC: 30 µg/mL (≈ 92.8 µM)
Salmonella typhimurium
  MIC: 30 µg/mL (≈ 92.8 µM)
Escherichia coli [9]
  MIC: 30 µg/mL (≈ 92.8 µM)

## O=[N+]([O-])c1ccc(-n2nnnc2-c2cccnc2)cc1
Aspergillus fumigatus
  zone of inhibition at 50 µg/mL: 10 to 22 mm
Staphylococcus aureus [1]
  zone of inhibition at 50 µg/mL: 10 to 22 mm
Escherichia coli [2]
  zone of inhibition at 50 µg/mL: 10 to 22 mm
Candida albicans [3]
  zone of inhibition at 50 µg/mL: 10 to 22 mm
Pseudomonas aeruginosa [18]
  zone of inhibition at 50 µg/mL: 10 to 22 mm
Bacillus subtilis [19]
  zone of inhibition at 50 µg/mL: 10 to 22 mm

## c1ccc(-n2nnnc2-c2cccnc2)cc1
Aspergillus fumigatus
  zone of inhibition at 50 µg/mL: 10 to 22 mm
Staphylococcus aureus [1]
  zone of inhibition at 50 µg/mL: 10 to 22 mm
Escherichia coli [2]
  zone of inhibition at 50 µg/mL: 10 to 22 mm
Candida albicans [3]
  zone of inhibition at 50 µg/mL: 10 to 22 mm
Pseudomonas aeruginosa [18]
  zone of inhibition at 50 µg/mL: 10 to 22 mm
Bacillus subtilis [19]
  zone of inhibition at 50 µg/mL: 10 to 22 mm

## COc1cc(-c2nnnn2-c2nc3ccccc3s2)cc(OC)c1OC
Bacillus cereus [5]
  MIC: 50 to 100 µg/mL (≈ 135 to 271 µM)
Staphylococcus aureus [6]
  MIC: 50 to 100 µg/mL (≈ 135 to 271 µM)
Candida albicans [7]
  MIC: 50 to 100 µg/mL (≈ 135 to 271 µM)
Aspergillus niger [8]
  MIC: 50 to 100 µg/mL (≈ 135 to 271 µM)
Escherichia coli [9]
  MIC: 50 to 100 µg/mL (≈ 135 to 271 µM)
Aspergillus niger [10]
  zone of inhibition at 250 µg/mL: 16 to 26 mm
Bacillus cereus [11]
  zone of inhibition at 250 µg/mL: 16 to 26 mm
Staphylococcus aureus [12]
  zone of inhibition at 250 µg/mL: 16 to 26 mm
Pseudomonas aeruginosa [13]
  zone of inhibition at 250 µg/mL: 16 to 26 mm
Escherichia coli [14]
  zone of inhibition at 250 µg/mL: 16 to 26 mm
Pseudomonas aeruginosa [15]
  MIC: 50 to 100 µg/mL (≈ 135 to 271 µM)
Candida albicans [16]
  zone of inhibition at 250 µg/mL: 16 to 26 mm

## Oc1cccc(-c2nnnn2-c2nc3ccccc3s2)c1
Bacillus cereus [5]
  MIC: 50 to 100 µg/mL (≈ 169 to 339 µM)
Staphylococcus aureus [6]
  MIC: 50 to 100 µg/mL (≈ 169 to 339 µM)
Candida albicans [7]
  MIC: 50 to 100 µg/mL (≈ 169 to 339 µM)
Aspergillus niger [8]
  MIC: 50 to 100 µg/mL (≈ 169 to 339 µM)
Escherichia coli [9]
  MIC: 50 to 100 µg/mL (≈ 169 to 339 µM)
Aspergillus niger [10]
  zone of inhibition at 250 µg/mL: 16 to 26 mm
Bacillus cereus [11]
  zone of inhibition at 250 µg/mL: 16 to 26 mm
Staphylococcus aureus [12]
  zone of inhibition at 250 µg/mL: 16 to 26 mm
Pseudomonas aeruginosa [13]
  zone of inhibition at 250 µg/mL: 16 to 26 mm
Escherichia coli [14]
  zone of inhibition at 250 µg/mL: 16 to 26 mm
Pseudomonas aeruginosa [15]
  MIC: 50 to 100 µg/mL (≈ 169 to 339 µM)
Candida albicans [16]
  zone of inhibition at 250 µg/mL: 16 to 26 mm

## CCCCCC(O)C(C(CCCCCCC(=O)OCCn1c([N+](=O)[O-])cnc1C)n1nnnc1C)n1nnnc1C (stereo not drawn)
Staphylococcus aureus [6]
  MIC: 72 µg/mL (≈ 125 µM)
Candida albicans [7]
  MIC: 124 µg/mL (≈ 215 µM)
Bacillus subtilis [17]
  MIC: 24 to 76 µg/mL (≈ 41.7 to 132 µM)
Salmonella typhimurium
  MIC: 34 µg/mL (≈ 59.1 µM)
Escherichia coli [9]
  MIC: 26 µg/mL (≈ 45.2 µM)

## Cc1ccc(-c2nnnn2-c2nc3ccccc3s2)cc1
Bacillus cereus [5]
  MIC: 50 to 100 µg/mL (≈ 170 to 341 µM)
Staphylococcus aureus [6]
  MIC: 50 to 100 µg/mL (≈ 170 to 341 µM)
Candida albicans [7]
  MIC: 50 to 100 µg/mL (≈ 170 to 341 µM)
Aspergillus niger [8]
  MIC: 50 to 100 µg/mL (≈ 170 to 341 µM)
Escherichia coli [9]
  MIC: 50 to 100 µg/mL (≈ 170 to 341 µM)
Aspergillus niger [10]
  zone of inhibition at 250 µg/mL: 16 to 26 mm
Bacillus cereus [11]
  zone of inhibition at 250 µg/mL: 16 to 26 mm
Staphylococcus aureus [12]
  zone of inhibition at 250 µg/mL: 16 to 26 mm
Pseudomonas aeruginosa [13]
  zone of inhibition at 250 µg/mL: 16 to 26 mm
Escherichia coli [14]
  zone of inhibition at 250 µg/mL: 16 to 26 mm
Pseudomonas aeruginosa [15]
  MIC: 50 to 100 µg/mL (≈ 170 to 341 µM)
Candida albicans [16]
  zone of inhibition at 250 µg/mL: 16 to 26 mm

## O=C(/C=C/c1ccccc1[N+](=O)[O-])n1nnnc1-c1ccccc1
Staphylococcus aureus [1]
  zone of inhibition at 50 µg/mL: 8 to 15 mm
Escherichia coli [2]
  zone of inhibition at 50 µg/mL: 8 to 15 mm
Candida albicans [3]
  zone of inhibition at 50 µg/mL: 8 to 15 mm
Aspergillus niger [4]
  zone of inhibition at 50 µg/mL: 8 to 15 mm

## Clc1ccccc1-n1nnnc1-c1cccnc1
Aspergillus fumigatus
  zone of inhibition at 50 µg/mL: 10 to 22 mm
Staphylococcus aureus [1]
  zone of inhibition at 50 µg/mL: 10 to 22 mm
Escherichia coli [2]
  zone of inhibition at 50 µg/mL: 10 to 22 mm
Candida albicans [3]
  zone of inhibition at 50 µg/mL: 10 to 22 mm
Pseudomonas aeruginosa [18]
  zone of inhibition at 50 µg/mL: 10 to 22 mm
Bacillus subtilis [19]
  zone of inhibition at 50 µg/mL: 10 to 22 mm

## Cc1ccc(-n2nnnc2-c2cccnc2)cc1
Aspergillus fumigatus
  zone of inhibition at 50 µg/mL: 10 to 22 mm
Staphylococcus aureus [1]
  zone of inhibition at 50 µg/mL: 10 to 22 mm
Escherichia coli [2]
  zone of inhibition at 50 µg/mL: 10 to 22 mm
Candida albicans [3]
  zone of inhibition at 50 µg/mL: 10 to 22 mm
Pseudomonas aeruginosa [18]
  zone of inhibition at 50 µg/mL: 10 to 22 mm
Bacillus subtilis [19]
  zone of inhibition at 50 µg/mL: 10 to 22 mm

## COc1ccc(-n2nnnc2-c2cccnc2)cc1
Aspergillus fumigatus
  zone of inhibition at 50 µg/mL: 10 to 22 mm
Staphylococcus aureus [1]
  zone of inhibition at 50 µg/mL: 10 to 22 mm
Escherichia coli [2]
  zone of inhibition at 50 µg/mL: 10 to 22 mm
Candida albicans [3]
  zone of inhibition at 50 µg/mL: 10 to 22 mm
Pseudomonas aeruginosa [18]
  zone of inhibition at 50 µg/mL: 10 to 22 mm
Bacillus subtilis [19]
  zone of inhibition at 50 µg/mL: 10 to 22 mm

## COc1ccccc1-n1nnnc1-c1cccnc1
Aspergillus fumigatus
  zone of inhibition at 50 µg/mL: 10 to 22 mm
Staphylococcus aureus [1]
  zone of inhibition at 50 µg/mL: 10 to 22 mm
Escherichia coli [2]
  zone of inhibition at 50 µg/mL: 10 to 22 mm
Candida albicans [3]
  zone of inhibition at 50 µg/mL: 10 to 22 mm
Pseudomonas aeruginosa [18]
  zone of inhibition at 50 µg/mL: 10 to 22 mm
Bacillus subtilis [19]
  zone of inhibition at 50 µg/mL: 10 to 22 mm

## Cc1ccc(-c2nnnn2-c2ccccn2)cc1
Aspergillus fumigatus
  zone of inhibition at 50 µg/mL: 10 to 24 mm
Staphylococcus aureus [1]
  zone of inhibition at 50 µg/mL: 10 to 24 mm
Escherichia coli [2]
  zone of inhibition at 50 µg/mL: 10 to 24 mm
Candida albicans [3]
  zone of inhibition at 50 µg/mL: 10 to 24 mm
Pseudomonas aeruginosa [18]
  zone of inhibition at 50 µg/mL: 10 to 24 mm
Bacillus subtilis [19]
  zone of inhibition at 50 µg/mL: 10 to 24 mm

## Clc1ccccc1-c1nnnn1-c1ccccn1
Aspergillus fumigatus
  zone of inhibition at 50 µg/mL: 10 to 24 mm
Staphylococcus aureus [1]
  zone of inhibition at 50 µg/mL: 10 to 24 mm
Escherichia coli [2]
  zone of inhibition at 50 µg/mL: 10 to 24 mm
Candida albicans [3]
  zone of inhibition at 50 µg/mL: 10 to 24 mm
Pseudomonas aeruginosa [18]
  zone of inhibition at 50 µg/mL: 10 to 24 mm
Bacillus subtilis [19]
  zone of inhibition at 50 µg/mL: 10 to 24 mm

## c1ccc(-c2nnnn2-c2ccccn2)cc1
Aspergillus fumigatus
  zone of inhibition at 50 µg/mL: 10 to 24 mm
Staphylococcus aureus [1]
  zone of inhibition at 50 µg/mL: 10 to 24 mm
Escherichia coli [2]
  zone of inhibition at 50 µg/mL: 10 to 24 mm
Candida albicans [3]
  zone of inhibition at 50 µg/mL: 10 to 24 mm
Pseudomonas aeruginosa [18]
  zone of inhibition at 50 µg/mL: 10 to 24 mm
Bacillus subtilis [19]
  zone of inhibition at 50 µg/mL: 10 to 24 mm
